Experimental data published in patent US8557796B2, “Substituted 1-oxa-2,8-diaza-spiro [4,5] dec-2-ene derivatives and related treatment methods” (Gruenenthal GmbH, priority 2001, dated 2013).

Target: T1, 5HT-uptake (Rattus norvegicus, UniProt P31652)
T1 construct: synaptosomes from rat brain regions were freshly isolated; from tissue; host or cells: P2 synaptosome fraction from rat brain regions
Test: Serotonin uptake inhibition (5HT uptake) in synaptosomes
Type: biochemical
Conditions: rat brain synaptosomes
Excerpt: Tests on Serotonin Uptake (5HT Uptake Inhibition)
In order to be able to carry out these in vitro studies, synaptosomes from rat brain regions were freshly isolated.

T1 sequence (P31652 whole entry): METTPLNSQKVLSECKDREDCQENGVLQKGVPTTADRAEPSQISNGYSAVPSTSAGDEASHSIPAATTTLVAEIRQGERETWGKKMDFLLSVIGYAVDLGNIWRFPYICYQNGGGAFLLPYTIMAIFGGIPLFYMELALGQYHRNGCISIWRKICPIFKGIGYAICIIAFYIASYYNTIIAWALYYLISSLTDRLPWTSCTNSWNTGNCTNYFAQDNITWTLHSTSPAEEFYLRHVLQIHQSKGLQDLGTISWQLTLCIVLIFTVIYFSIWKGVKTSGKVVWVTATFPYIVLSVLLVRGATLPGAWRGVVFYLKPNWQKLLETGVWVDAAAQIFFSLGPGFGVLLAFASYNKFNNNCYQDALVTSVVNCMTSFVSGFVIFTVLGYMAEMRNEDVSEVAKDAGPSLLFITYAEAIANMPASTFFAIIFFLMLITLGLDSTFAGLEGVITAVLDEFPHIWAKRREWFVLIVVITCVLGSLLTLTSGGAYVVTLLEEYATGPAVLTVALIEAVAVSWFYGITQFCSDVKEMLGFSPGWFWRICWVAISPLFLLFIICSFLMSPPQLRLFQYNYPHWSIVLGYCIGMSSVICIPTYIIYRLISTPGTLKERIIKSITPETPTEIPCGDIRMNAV

Row | SMILES | 5HT-uptake, 10 μM, % inhibition | inhibition at 10 µM
1 | COC(=O)C(Cc1c[nH]c2ccccc12)NC(=O)C1=NOC2(CCN(S(=O)(=O)c3ccc(OC(F)(F)F)cc3)CC2)C1 (centres unmarked) [Example 1, 3-(1H-indo1-3-yl)-2-{[8-(4-trifluoromethoxy-benzene-sulphonyl)-1-oxa-2,8-diaza-spiro[4,5]dec-2-ene-3-carbonyl]-amino}-propionic acid methyl ester] | 47% | –
2 | CCCC(=O)N1CCC2(CC1)CC(C(=O)Nc1ccccc1)=NO2 [Example 85, 8-butyryl-1-oxa-2,8-diaza-spiro[4,5]dec-2-ene-3-carboxylic acid phenylamide] | – | 41%
3 | COc1ccc(C(=O)N2CCC3(CC2)CC(C(=O)NCc2ccc(C)o2)=NO3)cc1 [Example 59] | 45% | –
4 | CCOc1ccccc1CNC(=O)C1=NOC2(CCN(S(=O)(=O)Cc3ccccc3)CC2)C1 [Example 51, 8-phenylmethanesulphonyl-1-oxa-2,8-diaza-spiro[4,5]dec-2-ene-3-carboxylic acid 2-ethoxy-benzylamide] | – | 49%
5 | Cc1ccc(S(=O)(=O)N2CCC3(CC2)CC(C(=O)NCc2cc(Cl)cc(Cl)c2)=NO3)cc1 [Example 63, 8-(toluene-4-sulphonyl)-1-oxa-2,8-diaza-spiro[4,5]dec-2-ene-3-carboxylic acid 3,5-dichlorobenzylamide] | – | 55%
6 | O=C(NCc1cccc(F)c1)C1=NOC2(CCN(S(=O)(=O)c3cccs3)CC2)C1 [Example 24, 8-(thiophene-2-sulphonyl)-1-oxa-2,8-diaza-spiro[4,5]dec-2-ene-3-carboxylic acid 3-fluorobenzylamide] | – | 40%
7 | COc1cccc(CNC(=O)C2=NOC3(CCN(S(=O)(=O)c4ccc(OC(F)(F)F)cc4)CC3)C2)c1 [Example 162, 8-(4-trifluoromethoxy-benzenesulphonyl)-1-oxa-2,8-diaza-spiro[4,5]dec-2-ene-3-carboxylic acid 3-methoxy-benzylamide] | – | 40%
8 | CN(C)S(=O)(=O)N1CCC2(CC1)CC(C(=O)NCc1ccc(C(F)(F)F)c(F)c1)=NO2 [Example 72, 8-dimethylsulphamoyl-1-oxa-2,8-diaza-spiro[4,5]dec-2-ene-3-carboxylic acid 3-fluoro-4-trifluoromethyl-benzylamide] | – | 42%
9 | O=C(NCC1CC1)C1=NOC2(CCN(S(=O)(=O)c3cccc(C(F)(F)F)c3)CC2)C1 [Example 94, 8-(3-trifluoromethyl-benzenesulphonyl)-1-oxa-2,8-diaza-spiro[4,5]dec-2-ene-3 carboxylic acid cyclopropylmethyl-amide] | – | 57%
10 | O=C(C1=NOC2(CCN(S(=O)(=O)Cc3ccccc3)CC2)C1)N1CCN(Cc2ccc3ccccc3c2)CC1 [Example 6, (4-naphthalen-2-ylmethyl-piperazin-l-yl)-(8-phenylmethane-sulphonyl-1-oxa-2,8 diaza-spiro[4,5]dec-2-en-3-yl)-methanone] | 54% | –
11 | O=C(NCc1cc(F)ccc1F)C1=NOC2(CCN(S(=O)(=O)c3ccc(Cl)s3)CC2)C1 [Example 49, 8-(5-chloro-thiophene-2-sulphonyl)-1-oxa-2,8-diaza-spiro[4,5]dec-2-ene-3 carboxylic acid 2,5-difluoro-benzylamide] | – | 50%
12 | CCOC(=O)CCNC(=O)C1=NOC2(CCN(C(=O)c3c(Cl)ccc(C)c3F)CC2)C1 [Example 148] | 47% | –
13 | CCSCCNC(=O)C1=NOC2(CCN(S(=O)(=O)N(C)C)CC2)C1 [Example 161] | 44% | –
14 | CCOC(=O)CCNC(=O)C1=NOC2(CCN(S(=O)(=O)c3cc([N+](=O)[O-])ccc3C)CC2)C1 [Example 95] | 54% | –
15 | CN1CCCC1CCNC(=O)C1=NOC2(CCN(S(=O)(=O)c3ccc(Cl)s3)CC2)C1 (centres unmarked) [Example 61, 8-(5-chloro-thiophene-2-sulphonyl)-1-oxa-2,8-diaza-spiro[4,5]dec-2-ene-3-carboxylic acid [2-(1-methyl-pyrrolidin-2-yl)-ethyl]-amide] | – | 72%
16 | CCOC(=O)N1CCC(NC(=O)C2=NOC3(CCN(C(=O)c4ccc(F)cc4F)CC3)C2)CC1 [Example 56, 4-{[8-(2,4-difluoro-benzoyl)-1-oxa-2,8-diaza-spiro[4,5]dec-2-ene-3-carbonyl]-amino}-piperidine-1-carboxylic acid ethyl ester] | – | 52%
17 | CN(CCc1c[nH]c2ccccc12)C(=O)C1=NOC2(CCN(S(=O)(=O)c3ccc(OC(F)(F)F)cc3)CC2)C1 [Example 16, 8-(4-trifluoromethoxy-benzenesulphonyl)-1-oxa-2,8-diaza-spiro[4,5]dec-2-ene-3 carboxylic acid [2-(1 H-indo1-3-yl)-ethyl]-methyl-amide] | 60% | –
18 | CC(=O)N1CCC2(CC1)CC(C(=O)NCc1ccccc1)=NO2 [Example 48, 8-acetyl-1-oxa-2,8-diaza-spiro[4,5]dec-2-ene-3-carboxylic acid benzylamide] | – | 41%

Row | SMILES | 5HT-uptake, 10 μM, % inhibition | inhibition at 10 µM
19 | Cc1ccc(S(=O)(=O)N2CCC3(CC2)CC(C(=O)N(CCC#N)Cc2ccccc2)=NO3)cc1 [Example 28, 8-(toluene-4-sulphonyl)-1-oxa-2,8-diaza-spiro[4,5]dec-2-ene-3-carboxylic acid benzyl-(2-cyano-ethyl)-amide] | – | 43%
20 | CCOC(=O)N1CCC(NC(=O)C2=NOC3(CCN(C(=O)c4ccc(Br)cc4)CC3)C2)CC1 [Example 62, 4-{[8-(4-bromo-benzoyl)-1-oxa-2,8-diaza-spiro[4,5]dec-2-ene-3-carbonyl]-amino)-piperidine-l-carboxylic acid ethyl ester] | 73% | –
21 | CN(Cc1cccnc1)C(=O)C1=NOC2(CCN(S(=O)(=O)c3cc(Cl)ccc3Cl)CC2)C1 [Example 92, 8-(2,5-dichloro-benzenesulphonyl)-1-oxa-2,8-diaza-spiro[4,5]dec-2-ene-3-carboxylic acid methyl-pyridin-3-ylmethyl-amide] | – | 51%
22 | N#CCCN(Cc1cccnc1)C(=O)C1=NOC2(CCN(S(=O)(=O)c3cc(Cl)ccc3Cl)CC2)C1 [Example 99, 8-(2,5-dichloro-benzenesulphonyl)-1-oxa-2,8-diaza-spiro[4,5]dec-2-ene-3-carboxylic acid (2-cyano-ethyl)-pyridin-3-ylmethyl-amide] | – | 44%
23 | CCN(CC)c1ccc(C(=O)NNC(=O)C2=NOC3(CCN(S(=O)(=O)c4cccs4)CC3)C2)cc1 [Example 10, 4-diethylamino-benzoic acid N′-[8-(thiophene-2-sulphonyl)-1-oxa-2,8-diaza-spiro[4,5]dec-2-ene-3-carbonyl]-hydrazide] | – | 40%
24 | CCOC(=O)CCNC(=O)C1=NOC2(CCN(S(=O)(=O)CC34CCC(CC3=O)C4(C)C)CC2)C1 (centres unmarked) [Example 66, 3-{[8-(7,7-dimethyl-2-oxo-bicyclo[2.2.1]hept-1-ylmethane-sulphonyl)-1-oxa-2,8-diaza-spiro[4,5]dec-2-ene-3-carbonyl]-amino]-propionic acid ethyl ester] | – | 40%
25 | C=CCOC(=O)C(CC(=O)OC(C)(C)C)NC(=O)C1=NOC2(CCN(S(=O)(=O)c3cc(Cl)ccc3Cl)CC2)C1 (centres unmarked) [Example 53] | 53% | –
26 | O=C(NCCc1ccc(Cl)cc1)C1=NOC2(CCN(S(=O)(=O)c3cccs3)CC2)C1 [Example 60, 8-(thiophene-2-sulphonyl)-1-oxa-2,8-diaza-spiro[4,5]dec-2-ene-3-carboxylic acid [2-(4-chlorophenyl)-ethyl]-amide] | – | 65%
27 | CCCCCC(=O)N1CCC2(CC1)CC(C(=O)NCC1CC1)=NO2 [Example 158, 8-hexanoyl-1-oxa-2,8-diaza-spiro[4,5]dec-2-ene-3-carboxylic acid cyclopropylmethyl-amide] | – | 42%
28 | COc1ccc(S(=O)(=O)N2CCC3(CC2)CC(C(=O)NC(CC(C)C)C(=O)OC(C)(C)C)=NO3)cc1 (centres unmarked) [Example 147, 2-{[8-(4-methoxy-benzenesulphonyl)-1-oxa-2,8-diaza-spiro[4,5]dec-2-ene-3-carbonyl]-amino}-4-methyl-pentanoic acid tert-butyl ester] | – | 67%
29 | O=C(NC1CCN(Cc2ccc(C(F)(F)F)cc2)C1)C1=NOC2(CCN(S(=O)(=O)c3cccs3)CC2)C1 (centres unmarked) [Example 26, 8-(thiophene-2-sulphonyl)-1-oxa-2,8-diaza-spiro[4,5]dec-2-ene-3-carboxylic acid [1-(4-trifluoromethyl-benzyl)-pyrrolidin-3-yl]-amide] | – | 65%
30 | CCOC(=O)CCNC(=O)C1=NOC2(CCN(C(=O)c3cc(F)cc(F)c3)CC2)C1 [Example 81, 3-{[8-(3,5-difluoro-benzoyl)-1-oxa-2,8-diaza-spiro[4,5]dec-2-ene-3-carbonyl]-amino}-propionic acid ethyl ester] | – | 46%
31 | CN(C)S(=O)(=O)N1CCC2(CC1)CC(C(=O)NCc1ccc(F)cc1F)=NO2 [Example 77, 8-dimethylsulphamoyl-1-oxa-2,8-diaza-spiro[4,5]dec-2-ene-3-carboxylic acid 2,4-difluorobenzylamide] | – | 41%
32 | O=C(Cc1ccc(F)c(F)c1)N1CCN(C(=O)C2=NOC3(CCN(S(=O)(=O)c4cccc(C(F)(F)F)c4)CC3)C2)CC1 [Example 93] | 42% | –
33 | CCCC(=O)N1CCC2(CC1)CC(C(=O)NC1CCN(C(=O)OCC)CC1)=NO2 [Example 74, 4-[(8-butyryl-1-oxa-2,8-diaza-spiro[4,5]dec-2-ene-3-carbonyl)-amino]-piperidine-l-carboxylic acid ethyl ester] | 43% | –
34 | CC(=O)NCCNC(=O)C1=NOC2(CCN(S(=O)(=O)c3cc(F)ccc3C)CC2)C1 [Example 17, 8-(5-fluoro-2-methyl-benzenesulphonyl)-1-oxa-2,8-diaza-spiro[4,5]dec-2-ene-3 carboxylic acid (2-acetylamino-ethyl)-amide] | – | 46%
35 | Cc1cc(C(=O)N2CCC3(CC2)CC(C(=O)NCC(C)C)=NO3)ccc1Br [Example 88, 8-(4-bromo-3-methyl-benzoyl)-1-oxa-2,8-diaza-spiro[4,5]dec-2-ene-3-carboxylic acid isobutyl-amide] | – | 46%
